Laboratory results published in ChEMBL document CHEMBL1201862, “PubChem BioAssay data set” (2004).
Active and inactive are the calls of the source.

Assays:
HeLa = assay: HeLa cell cytotoxicity, dose response, cytotoxicity control for MITF activator project, CellTiter-Glo luminescence, cherry-pick samples (AID 540259); type: functional, cell-based; settings: Homo sapiens
[1] = biological target: T1, Microphthalmia-associated transcription factor (Homo sapiens, UniProt O75030); assay: TRPM1 promoter luciferase signal decrease, dose response, MITF inhibitor project, cell-based, SK-MEL-5, cherry-picked, set 3 (AID 493073); type: functional
T1 sequence (O75030 whole entry): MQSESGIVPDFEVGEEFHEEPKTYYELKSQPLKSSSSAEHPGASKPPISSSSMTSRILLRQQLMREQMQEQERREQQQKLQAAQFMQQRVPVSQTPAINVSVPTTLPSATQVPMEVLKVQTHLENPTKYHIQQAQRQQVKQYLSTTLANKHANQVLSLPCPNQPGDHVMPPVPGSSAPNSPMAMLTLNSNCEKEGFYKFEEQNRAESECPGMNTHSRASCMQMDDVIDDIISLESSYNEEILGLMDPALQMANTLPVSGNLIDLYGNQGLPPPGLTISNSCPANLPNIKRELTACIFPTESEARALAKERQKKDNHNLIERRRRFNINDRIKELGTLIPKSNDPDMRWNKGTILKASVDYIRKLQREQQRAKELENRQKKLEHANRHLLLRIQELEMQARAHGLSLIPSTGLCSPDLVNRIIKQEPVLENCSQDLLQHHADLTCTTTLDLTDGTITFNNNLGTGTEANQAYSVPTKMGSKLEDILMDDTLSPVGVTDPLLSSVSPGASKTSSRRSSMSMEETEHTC

A-375 = assay: MITF: Counter assay: A375 proliferation Measured in Cell-Based System Using Plate Reader - 2084-03_Inhibitor_Dose_DryPowder_Activity. [Related pubchem assays (depositor defined):AID488944]; type: functional; settings: Homo sapiens
Cytochrome P450 2D6 = Cytochrome P450 2D6 (Homo sapiens, UniProt P10635);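 further: CYP2D6 member of a cytochrome P450 panel assay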
Chain of Cytochrome P450 2D6 (P10635 whole entry): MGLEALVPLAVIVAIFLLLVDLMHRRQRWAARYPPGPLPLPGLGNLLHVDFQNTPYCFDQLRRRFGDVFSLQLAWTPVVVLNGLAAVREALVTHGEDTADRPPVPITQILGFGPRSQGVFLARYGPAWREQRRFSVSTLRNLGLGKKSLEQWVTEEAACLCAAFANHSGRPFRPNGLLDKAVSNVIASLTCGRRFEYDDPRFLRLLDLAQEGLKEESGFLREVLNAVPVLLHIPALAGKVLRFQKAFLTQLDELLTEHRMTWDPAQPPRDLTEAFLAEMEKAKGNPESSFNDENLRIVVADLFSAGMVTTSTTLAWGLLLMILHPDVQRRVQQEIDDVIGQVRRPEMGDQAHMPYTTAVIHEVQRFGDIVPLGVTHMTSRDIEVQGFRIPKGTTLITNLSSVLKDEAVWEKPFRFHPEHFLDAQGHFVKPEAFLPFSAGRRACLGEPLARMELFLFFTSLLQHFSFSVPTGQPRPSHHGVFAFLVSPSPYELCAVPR

Cytochrome P450 2C9 = Cytochrome P450 2C9 (Homo sapiens, UniProt P11712)
Chain of Cytochrome P450 2C9 (P11712 whole entry): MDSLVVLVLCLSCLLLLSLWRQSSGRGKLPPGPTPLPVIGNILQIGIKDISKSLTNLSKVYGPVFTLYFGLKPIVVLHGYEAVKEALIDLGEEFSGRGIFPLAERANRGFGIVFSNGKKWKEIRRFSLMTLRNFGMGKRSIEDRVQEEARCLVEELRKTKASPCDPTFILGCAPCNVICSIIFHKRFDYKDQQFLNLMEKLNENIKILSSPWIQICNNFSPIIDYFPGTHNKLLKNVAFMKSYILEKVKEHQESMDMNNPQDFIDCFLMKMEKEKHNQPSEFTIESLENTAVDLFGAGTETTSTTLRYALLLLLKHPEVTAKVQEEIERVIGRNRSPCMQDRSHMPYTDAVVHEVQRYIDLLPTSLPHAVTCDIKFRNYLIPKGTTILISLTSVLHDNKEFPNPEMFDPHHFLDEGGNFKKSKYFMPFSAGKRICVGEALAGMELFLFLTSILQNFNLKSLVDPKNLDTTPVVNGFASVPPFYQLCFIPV

Cytochrome P450 1A2 = biological target: T2, Cytochrome P450 1A2 (Homo sapiens, UniProt P05177);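 further: PubChem cytochrome P450 panel assay, CYP1A2 panel member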
T2 sequence (P05177 whole entry): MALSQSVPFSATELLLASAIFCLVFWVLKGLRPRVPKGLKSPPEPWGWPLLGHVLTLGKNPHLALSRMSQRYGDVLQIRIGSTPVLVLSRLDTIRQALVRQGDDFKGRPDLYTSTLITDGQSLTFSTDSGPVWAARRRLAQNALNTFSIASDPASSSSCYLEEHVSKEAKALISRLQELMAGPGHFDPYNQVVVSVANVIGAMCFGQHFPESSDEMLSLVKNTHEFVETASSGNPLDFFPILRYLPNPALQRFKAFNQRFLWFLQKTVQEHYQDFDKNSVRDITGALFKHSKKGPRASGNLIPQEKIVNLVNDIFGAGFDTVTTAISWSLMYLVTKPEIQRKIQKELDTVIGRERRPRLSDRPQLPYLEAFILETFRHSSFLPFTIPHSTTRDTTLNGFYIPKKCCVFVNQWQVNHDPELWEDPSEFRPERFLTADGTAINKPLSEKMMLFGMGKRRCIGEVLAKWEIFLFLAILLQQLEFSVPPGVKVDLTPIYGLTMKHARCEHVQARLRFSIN

Protein Tat = biological target: T3, Protein Tat (Human immunodeficiency virus type 1 group M subtype B (isolate HXB2)(HIV-1), UniProt P04608); type: functional;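 further: tat binding to TAR RNA read out by fluorescence polarization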
T3 sequence (P04608 whole entry): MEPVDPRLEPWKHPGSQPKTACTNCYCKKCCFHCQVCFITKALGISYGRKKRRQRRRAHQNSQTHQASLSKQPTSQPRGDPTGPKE

[2] = THP-1 cell cytotoxicity, dose response, cytotoxicity control for Vif-APOBEC3G degradation inhibitor project, THP-1 cells (AID 1117359); type: functional; settings: Human immunodeficiency virus 1, THP-1
[3] = biological target: T4, Carboxy-terminal domain RNA polymerase II polypeptide A small phosphatase 1 (Homo sapiens, UniProt Q9GZU7); assay: inhibitors of CTDSP1, concentration-response testing, biochemical assay, absorbance-based, actives from ultra-high-throughput screening (AID 540297); type: functional
T4 sequence (Q9GZU7 whole entry): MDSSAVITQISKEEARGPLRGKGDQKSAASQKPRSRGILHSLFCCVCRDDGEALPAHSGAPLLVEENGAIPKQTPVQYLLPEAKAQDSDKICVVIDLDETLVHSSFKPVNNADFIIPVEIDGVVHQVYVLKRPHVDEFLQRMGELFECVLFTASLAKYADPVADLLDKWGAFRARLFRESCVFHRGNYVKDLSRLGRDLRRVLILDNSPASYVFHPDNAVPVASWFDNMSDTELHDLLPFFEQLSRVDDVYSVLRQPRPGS

Bcl-2-related protein A1 = biological target: T5, Bcl-2-related protein A1 (Mus musculus, UniProt Q07440); type: functional;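 further: confirmatory dose–response counterscreen on Bfl-1, used to check hits from a UBC13 polyubiquitin inhibitor campaign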
T5 sequence (Q07440 whole entry): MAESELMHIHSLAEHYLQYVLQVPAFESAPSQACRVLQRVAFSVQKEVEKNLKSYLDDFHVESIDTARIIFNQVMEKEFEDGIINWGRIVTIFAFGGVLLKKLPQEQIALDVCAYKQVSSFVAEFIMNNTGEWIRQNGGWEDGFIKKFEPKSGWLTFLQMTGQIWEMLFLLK

[4] = miR-122 activators in hepatoma reporter cells, dose response, cell-based, Huh7 psiCHECK-miR122, Renilla luciferase, cherry-picked (AID 651956); type: functional;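 further: huh7 hepatoma cells stably carrying a psiCHECK-2 miR-122 sensor plasmid; renilla luciferase signal reporting endogenous miR-122 activity after 48 h compound exposure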
[5] = biological target: T6, Ubiquitin-conjugating enzyme E2 N (Homo sapiens, UniProt P61088); type: functional
T6 sequence (P61088 whole entry): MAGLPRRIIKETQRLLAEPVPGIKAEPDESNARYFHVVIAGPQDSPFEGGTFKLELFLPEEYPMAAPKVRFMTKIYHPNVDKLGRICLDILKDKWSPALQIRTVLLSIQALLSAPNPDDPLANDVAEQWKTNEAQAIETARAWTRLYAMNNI

[6] = biological target: T7, DNA repair and recombination protein RAD54-like (Homo sapiens, UniProt Q92698); assay: inhibitors of human RAD54 branch migration, confirmation, biochemical, fluorescence, cherry-picked samples, dose series (AID 651657); type: functional
T7 sequence (Q92698 whole entry): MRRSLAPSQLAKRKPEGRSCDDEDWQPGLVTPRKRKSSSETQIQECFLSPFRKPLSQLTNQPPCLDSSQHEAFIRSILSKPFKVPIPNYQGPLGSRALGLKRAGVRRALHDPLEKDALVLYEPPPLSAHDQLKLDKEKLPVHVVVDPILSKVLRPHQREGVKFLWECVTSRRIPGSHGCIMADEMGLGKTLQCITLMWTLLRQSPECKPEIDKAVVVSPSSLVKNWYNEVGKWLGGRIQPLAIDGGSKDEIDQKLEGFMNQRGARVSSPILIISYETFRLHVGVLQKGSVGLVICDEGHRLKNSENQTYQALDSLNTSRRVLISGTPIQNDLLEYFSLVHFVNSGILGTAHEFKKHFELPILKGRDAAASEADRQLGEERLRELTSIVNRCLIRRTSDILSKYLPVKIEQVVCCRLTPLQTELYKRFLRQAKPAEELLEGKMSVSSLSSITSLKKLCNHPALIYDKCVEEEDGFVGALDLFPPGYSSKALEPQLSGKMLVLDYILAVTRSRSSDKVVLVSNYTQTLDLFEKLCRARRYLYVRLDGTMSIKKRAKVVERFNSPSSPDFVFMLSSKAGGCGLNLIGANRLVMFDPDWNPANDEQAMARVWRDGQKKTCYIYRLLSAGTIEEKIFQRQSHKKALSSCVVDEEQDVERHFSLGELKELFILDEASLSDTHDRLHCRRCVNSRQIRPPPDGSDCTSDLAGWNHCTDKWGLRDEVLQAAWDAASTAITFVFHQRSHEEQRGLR

[7] = biological target: T6, Ubiquitin-conjugating enzyme E2 N; type: functional; remark: listed apart in the source
HEK293 [8] = assay: cells; settings: Homo sapiens
Tumor necrosis factor = Tumor necrosis factor (Homo sapiens, UniProt P01375); assay: TNFa-triggered NF-kB activation inhibitors, SAR follow-up, cell-based, revised (AID 2337); type: functional
Chain of Tumor necrosis factor (P01375 whole entry): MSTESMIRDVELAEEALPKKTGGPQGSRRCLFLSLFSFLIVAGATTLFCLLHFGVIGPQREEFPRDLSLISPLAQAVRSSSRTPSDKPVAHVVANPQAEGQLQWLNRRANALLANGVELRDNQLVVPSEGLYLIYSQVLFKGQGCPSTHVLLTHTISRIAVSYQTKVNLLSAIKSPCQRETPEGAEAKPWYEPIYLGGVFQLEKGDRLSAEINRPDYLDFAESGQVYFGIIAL

Protein RecA = biological target: T8, Protein RecA (Mycobacterium tuberculosis, UniProt P9WHJ3); assay: Fluorescence Cell-Free Homogeneous Dose Retest to Identify Inhibitors of RecA-Intein Splicing Activity. [Related pubchem assays (depositor defined):AID2097, AID2223, AID489010, AID492950]; type: functional
T8 sequence (P9WHJ3 whole entry): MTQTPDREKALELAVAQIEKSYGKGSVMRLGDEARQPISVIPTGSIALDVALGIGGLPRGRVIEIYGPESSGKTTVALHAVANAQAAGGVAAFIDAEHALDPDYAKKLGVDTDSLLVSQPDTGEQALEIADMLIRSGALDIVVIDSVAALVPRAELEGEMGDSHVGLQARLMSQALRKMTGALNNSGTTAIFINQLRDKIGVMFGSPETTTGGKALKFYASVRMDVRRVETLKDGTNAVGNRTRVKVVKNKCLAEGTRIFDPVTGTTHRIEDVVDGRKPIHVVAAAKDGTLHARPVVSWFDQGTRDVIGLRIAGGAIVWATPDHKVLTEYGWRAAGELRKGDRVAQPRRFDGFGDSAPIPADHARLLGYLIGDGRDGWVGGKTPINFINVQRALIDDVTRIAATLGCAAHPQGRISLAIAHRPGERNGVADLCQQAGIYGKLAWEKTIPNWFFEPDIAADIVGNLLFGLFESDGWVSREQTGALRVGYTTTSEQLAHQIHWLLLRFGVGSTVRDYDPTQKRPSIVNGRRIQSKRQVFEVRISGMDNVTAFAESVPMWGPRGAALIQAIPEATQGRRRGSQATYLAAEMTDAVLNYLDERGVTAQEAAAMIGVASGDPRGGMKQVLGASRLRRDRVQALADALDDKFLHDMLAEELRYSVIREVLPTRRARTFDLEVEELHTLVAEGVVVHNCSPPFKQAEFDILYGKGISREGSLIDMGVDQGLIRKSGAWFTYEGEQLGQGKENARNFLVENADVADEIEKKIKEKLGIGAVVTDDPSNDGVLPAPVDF

[9] = biological target: FAD-linked sulfhydryl oxidase ALR (Homo sapiens, UniProt P55789); assay: inhibitors of human ALR sulfhydryl oxidase, dose response, biochemical, H2O2 detection, luminescence, cherry-pick (AID 493248)
Chain of FAD-linked sulfhydryl oxidase ALR (P55789 whole entry): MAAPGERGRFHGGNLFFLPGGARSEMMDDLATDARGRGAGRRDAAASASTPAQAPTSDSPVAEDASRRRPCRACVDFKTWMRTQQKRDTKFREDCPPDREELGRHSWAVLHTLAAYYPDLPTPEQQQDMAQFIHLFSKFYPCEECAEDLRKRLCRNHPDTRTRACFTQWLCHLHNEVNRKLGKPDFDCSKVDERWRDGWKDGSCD

[10] = biological target: T9, Replicative DNA helicase DnaB (Mycobacterium tuberculosis, UniProt P9WMR3); assay: DnaB intein splicing inhibitors, dose response, biochemical, cell-free fluorescence (AID 449749); type: functional
T9 sequence (P9WMR3 whole entry): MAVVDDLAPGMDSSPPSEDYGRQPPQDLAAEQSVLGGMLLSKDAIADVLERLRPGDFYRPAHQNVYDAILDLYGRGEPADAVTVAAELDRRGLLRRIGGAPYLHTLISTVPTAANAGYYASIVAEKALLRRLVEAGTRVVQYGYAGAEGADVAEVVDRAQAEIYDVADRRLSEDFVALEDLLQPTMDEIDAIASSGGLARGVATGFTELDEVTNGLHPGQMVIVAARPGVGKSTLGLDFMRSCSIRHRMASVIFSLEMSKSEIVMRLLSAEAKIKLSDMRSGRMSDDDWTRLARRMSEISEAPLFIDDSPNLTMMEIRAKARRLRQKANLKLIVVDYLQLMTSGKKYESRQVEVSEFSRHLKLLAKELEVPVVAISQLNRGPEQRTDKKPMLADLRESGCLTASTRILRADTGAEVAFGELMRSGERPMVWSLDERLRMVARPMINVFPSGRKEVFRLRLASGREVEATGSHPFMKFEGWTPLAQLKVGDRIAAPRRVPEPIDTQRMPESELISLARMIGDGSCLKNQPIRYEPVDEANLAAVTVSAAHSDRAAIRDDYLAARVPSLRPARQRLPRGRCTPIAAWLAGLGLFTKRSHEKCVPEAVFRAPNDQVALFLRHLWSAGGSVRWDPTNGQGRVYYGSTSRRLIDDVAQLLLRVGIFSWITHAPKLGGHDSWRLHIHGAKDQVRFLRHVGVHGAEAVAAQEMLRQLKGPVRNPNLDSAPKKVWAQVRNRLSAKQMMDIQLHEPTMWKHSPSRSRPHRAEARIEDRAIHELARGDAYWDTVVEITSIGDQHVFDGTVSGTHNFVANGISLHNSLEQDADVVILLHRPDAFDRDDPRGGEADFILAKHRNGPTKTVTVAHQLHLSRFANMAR

HEK293 [11] = assay: inhibitors of LMP1-driven NF-kB reporter, dose response, cell-based, HEK293, luciferase, cherry-pick (AID 588343); type: functional; settings: Homo sapiens

O=C(Nc1ccc(-c2nc3cccnc3s2)cc1)c1ccc(Cl)nc1
AC50 (HeLa): 201 µM (active)

Cc1cc(C)cc(NS(=O)(=O)c2ccc3c(c2)c(=O)n(C)c(=O)n3C)c1
AC50 [1]: 4.67 µM (active) | AC50 (A-375): 17.3 µM (active)

CCOC(=S)SCC(=O)O
AC50 (Cytochrome P450 2D6): inconclusive

CC(=O)c1c(C(C)=O)c(C)n(NC(=O)c2ccccc2Cl)c1C
AC50 (Cytochrome P450 2D6): inconclusive | AC50 (Cytochrome P450 2C9): inconclusive

COc1ccc(OC)c2nc(O)c(CCNS(=O)(=O)c3ccc(C)cc3)cc12
AC50 (Cytochrome P450 2D6): inconclusive | AC50 (Cytochrome P450 1A2): 12.6 µM (inconclusive)

CC(=O)N(\C=C/C=C/C=C1\Sc2ccccc2C1=O)c1ccccc1
IC50 (Protein Tat): > 100 µM (active) | AC50 [1]: 8 µM (active) | CC50 [2]: > 40 µM (active) | AC50 (A-375): 50.7 µM (active)

COc1cc(NC(=O)c2ccc3c(c2)C(=O)N(CCC(C)C)C3=O)c(C(=O)O)cc1OC
IC50 [3]: 7.04 µM (active)

C=CCc1ccccc1OCC(O)CN1CCN(CCN2C(=O)c3cccc4cccc(c34)C2=O)CC1 (stereo not given)
IC50 (Bcl-2-related protein A1): > 20 µM (inactive) | AC50 [4]: 8.26 µM (active) | IC50 [5]: 17.2 µM (active) | AC50 [6]: 9.3 µM (active) | IC50 [7]: 17.7 µM (active)

CCCC(=O)Nc1nc(-c2ccccc2)ns1
AC50 (HeLa): 64.7 µM (active)

CN(C)c1ccc(NC(=O)c2ccc(CN3CCCCC3)cc2)cc1
IC50 (HEK293 [8]): > 20 µM (inactive) | IC50 (Tumor necrosis factor): > 20 µM (inactive)

CC(C)(C)c1ccc(C(=O)O/N=C(\N)c2cccc([N+](=O)[O-])c2)cc1
IC50 (HEK293 [8]): > 20 µM (inactive)

O=C(CSc1nc2sc3c(c2c(=O)n1-c1ccccc1)CCCC3)N/N=C/c1ccccc1C(=O)O
IC50 [3]: 9.27 µM (active)

Cc1cc(Sc2nnc(/N=C/N(C)C)s2)c2ccccc2n1
EC50 (Protein RecA): 10.3 µM (active) | IC50 (Bcl-2-related protein A1): > 20 µM (inactive) | AC50 [9]: 801 nM (active) | IC50 [5]: 8.88 µM (active) | AC50 [10]: 39.8 µM (active) | AC50 (HEK293 [11]): 2.9 µM (active) | IC50 [7]: 11 µM (active)
